The subject of assay [1] is Mycoplasmoides pneumoniae. The experiment in a line: Antimicrobial activity against Mycoplasma pneumoniae by broth microdilution method. The format is functional. Background: Dilution methods test growth across graded concentrations, often in twofold steps.
Assay [2] deals with Mycoplasma genitalium. The experiment in a line: Antimicrobial activity against Mycoplasma genitalium by broth microdilution method. Conditions: Mycoplasmoides genitalium. Format: functional.
Assay [3] concerns Metamycoplasma hominis. As to the kind of experiment: Antimicrobial activity against Mycoplasma hominis by broth microdilution method. Format: functional.
Assay [4] relates to Mycoplasma fermentans. The experiment in a line: Antimicrobial activity against Mycoplasma fermentans by broth microdilution method. The following applies: Mycoplasmopsis fermentans. The format is functional.
Assay [5] has as its system Ureaplasma parvum. As to the kind of experiment: Antimicrobial activity against Ureaplasma parvum by broth microdilution method. The format is functional.
For assay [6], the system named is Ureaplasma urealyticum. The experiment in a line: Antimicrobial activity against Ureaplasma urealyticum by broth microdilution method. Format: functional.
Assay [7] relates to Mycoplasmoides pneumoniae. The experiment in a line: Bactericidal activity against Mycoplasma pneumoniae at 8 X MIC after 120 hrs. The format is functional, organism-based.
Assay [8] deals with Ureaplasma parvum. As to the kind of experiment: Antimicrobial activity against fluoroquinolone-resistant Ureaplasma parvum by broth microdilution method. The format is functional.
The subject of assay [9] is Mycoplasmoides pneumoniae. As to the kind of experiment: Bactericidal activity against Mycoplasma pneumoniae at MIC after 48 hrs. The format is functional, organism-based.
Assay [10] deals with Mycoplasmoides pneumoniae. As to the kind of experiment: Bactericidal activity against Mycoplasma pneumoniae assessed as log reduction in bacterial load at MIC after 24 hrs. Format: functional.
Assay [11] concerns Mycoplasmoides pneumoniae. As to the kind of experiment: Bactericidal activity against Mycoplasma pneumoniae assessed as log reduction in bacterial load at MIC after 72 hrs. The format is functional.

These results are taken from ChEMBL document CHEMBL1275512, “Comparative in vitro activities of the investigational fluoroquinolone DC-159a and other antimicrobial agents against human mycoplasmas and ureaplasmas” (2008).

Structures are written as SMILES. In brackets after ≈: the same amount, converted by molar mass. Activity calls are given as the source filed them. The calls are words filed in the database; no cut-off is given here.

Consider `CC[C@H]1OC(=O)[C@H](C)[C@@H](O[C@H]2C[C@@](C)(OC)[C@@H](O)[C@H](C)O2)[C@H](C)[C@@H](O[C@@H]2O[C@H](C)C[C@H](N(C)C)[C@H]2O)[C@](C)(O)C[C@@H](C)C(=O)[C@H](C)[C@@H](O)[C@]1(C)O` [ERYTHROMYCIN], for which the MIC50 in assay [1] was 0.004 µg/mL (≈ 0.00545 µM); in [3], 0.016 µg/mL (≈ 0.0218 µM); in assay [4], 0.032 µg/mL (≈ 0.0436 µM); in [5], 1 µg/mL (≈ 1.36 µM); in assay [6] it was 2 µg/mL (≈ 2.73 µM). The MIC90 in [1] stood at 0.004 µg/mL (≈ 0.00545 µM); in [3], 0.032 µg/mL (≈ 0.0436 µM); in [4], 0.125 µg/mL (≈ 0.17 µM); in [5], 4 µg/mL (≈ 5.45 µM); in assay [6] it was 4 µg/mL (≈ 5.45 µM). For the same compound, the MIC in assay [2] was ≤ 0.001 µg/mL. Further, in assay [7], the result was Active.

For `O=C(O)c1cn(C2CC2)c2cc(N3CCNCC3)c(F)cc2c1=O` [CIPROFLOXACIN], the MIC50 came out at 2 µg/mL (≈ 6.04 µM) in assay [1]; 0.5 µg/mL (≈ 1.51 µM) in assay [3]; 0.063 µg/mL (≈ 0.19 µM) in assay [4]; 2 µg/mL (≈ 6.04 µM) in assay [5]; 4 µg/mL (≈ 12.1 µM) in assay [6]. Besides, the MIC90 in [1] was 4 µg/mL (≈ 12.1 µM); in assay [3], 1 µg/mL (≈ 3.02 µM); in assay [4], 0.125 µg/mL (≈ 0.377 µM); in [5], 16 µg/mL (≈ 48.3 µM); in assay [6], 8 µg/mL (≈ 24.1 µM). Further, the minimum inhibitory concentration (MIC) in assay [2] was 0.5 µg/mL (≈ 1.51 µM); in assay [8] it was 32 µg/mL (≈ 96.6 µM).

For `C[C@H]1c2cccc(O)c2C(=O)C2=C(O)[C@]3(O)C(=O)C(C(N)=O)=C(O)[C@@H](N(C)C)[C@@H]3[C@@H](O)[C@@H]21.O` [DOXYCYCLINE], the MIC50 in assay [1] was 0.25 µg/mL; in assay [3], 2 µg/mL; in assay [4] it was 0.25 µg/mL; in assay [5] it was 0.125 µg/mL; in [6] it was 0.125 µg/mL. For the same compound, the MIC90 in assay [1] came to 0.5 µg/mL; in assay [3], 8 µg/mL; in [4], 1 µg/mL; in [5], 2 µg/mL; in assay [6], 0.5 µg/mL. In addition, it took 0.032 µg/mL to inhibit growth in assay [2] (MIC).

Turning to `CN(C)[C@@H]1C(O)=C(C(N)=O)C(=O)[C@@]2(O)C(O)=C3C(=O)c4c(O)cccc4[C@@](C)(O)[C@H]3C[C@@H]12` [TETRACYCLINE], the MIC50 in assay [1], in [3], in [4], in [5] and in [6] was 0.5 µg/mL (≈ 1.13 µM) in each case. Further, the MIC90 in assay [1] was found to be 1 µg/mL (≈ 2.25 µM); in assay [3], 16 µg/mL (≈ 36 µM); in [4] it was 1 µg/mL (≈ 2.25 µM); in assay [5] it was 8 µg/mL (≈ 18 µM); in assay [6] it was 2 µg/mL (≈ 4.5 µM). For the same compound, the MIC in assay [2] stood at 0.25 µg/mL (≈ 0.563 µM).

For the compound `COc1c(N2C[C@@H]3CCCN[C@@H]3C2)c(F)cc2c(=O)c(C(=O)O)cn(C3CC3)c12` [MOXIFLOXACIN], the MIC50 worked out at 0.125 µg/mL (≈ 0.311 µM) in [1]; 0.063 µg/mL (≈ 0.157 µM) in assay [3]; 0.032 µg/mL (≈ 0.0797 µM) in assay [4]; 0.5 µg/mL (≈ 1.25 µM) in assay [5]; 0.25 µg/mL (≈ 0.623 µM) in assay [6]. Further, the MIC90 in assay [1] came to 0.125 µg/mL (≈ 0.311 µM); in [3], 0.063 µg/mL (≈ 0.157 µM); in assay [4], 0.063 µg/mL (≈ 0.157 µM); in assay [5] it was 2 µg/mL (≈ 4.98 µM); in [6] it was 0.5 µg/mL (≈ 1.25 µM). Besides, the MIC worked out at 0.016 µg/mL (≈ 0.0399 µM) in [2], 0.25 µg/mL (≈ 0.623 µM) in [6] and 4 µg/mL (≈ 9.96 µM) in [8]. The outcome in [9] was Active.

`COc1c(N2CC3(CC3)[C@](C)(N)C2)c(F)cc2c(=O)c(C(=O)O)cn([C@@H]3C[C@@H]3F)c12`: the MIC50 turned out to be 0.063 µg/mL (≈ 0.15 µM) in assay [1]; 0.125 µg/mL (≈ 0.298 µM) in assay [3]; 0.016 µg/mL (≈ 0.0381 µM) in [4]; 0.5 µg/mL (≈ 1.19 µM) in [5]; 0.5 µg/mL (≈ 1.19 µM) in [6]. The MIC90 in assay [1] amounted to 0.063 µg/mL (≈ 0.15 µM); in assay [3] it was 0.25 µg/mL (≈ 0.596 µM); in assay [4], 0.032 µg/mL (≈ 0.0763 µM); in [5] it was 2 µg/mL (≈ 4.77 µM); in assay [6] it was 1 µg/mL (≈ 2.38 µM). The MIC in assay [2] turned out to be 0.016 µg/mL (≈ 0.0381 µM); in assay [8] it was 4 µg/mL (≈ 9.54 µM). In addition, the FC in [10] and in assay [11] was 3 each time.

Turning to `CC[C@H]1OC(=O)[C@H](C)[C@@H](O[C@H]2C[C@@](C)(OC)[C@@H](O)[C@H](C)O2)[C@H](C)[C@@H](O[C@@H]2O[C@H](C)C[C@H](N(C)C)[C@H]2O)[C@](C)(O)C[C@@H](C)CN(C)[C@H](C)[C@@H](O)[C@]1(C)O` [AZITHROMYCIN], the minimum inhibitory concentration (MIC) in [1] and in assay [2] was ≤ 0.001 µg/mL each time. Further, the MIC50 was ≤ 0.001 µg/mL in [1], 1 µg/mL (≈ 1.34 µM) in assay [5] and 2 µg/mL (≈ 2.67 µM) in [6]. Also, the figures for the MIC90 in assay [1], in assay [5] and in [6] were ≤ 0.001 µg/mL, 2 µg/mL (≈ 2.67 µM) and 4 µg/mL (≈ 5.34 µM), respectively.

`C[C@H]1COc2c(N3CCN(C)CC3)c(F)cc3c(=O)c(C(=O)O)cn1c23.C[C@H]1COc2c(N3CCN(C)CC3)c(F)cc3c(=O)c(C(=O)O)cn1c23.O` [LEVOFLOXACIN]: the MIC50 came out at 0.5 µg/mL in [1]; 0.25 µg/mL in assay [3]; 0.063 µg/mL in [4]; 0.5 µg/mL in [5]; 1 µg/mL in assay [6]. The MIC90 was determined as 1 µg/mL in assay [1]; 0.5 µg/mL in assay [3]; 0.125 µg/mL in assay [4]; 2 µg/mL in assay [5]; 1 µg/mL in [6]. In addition, the results for the minimum inhibitory concentration (MIC) in assay [2], in [5] and in assay [8] were 1 µg/mL, 0.5 µg/mL and 16 µg/mL, respectively.

As usually defined, the MIC50 is the lowest concentration that inhibits either 50% of growth or 50% of the strains tested, depending on the study. For orientation: MIC90 means an inhibitory concentration at the 90% level, which refers to growth in some studies and to a panel of isolates in others. Low readings indicate higher susceptibility, high ones lower susceptibility. What is called MIC is the lowest concentration that inhibits growth of the organism. A low value points to inhibition by little substance.
